Laboratory results reported in patent US11168047B2, “Cocrystal of 2-[(1R,6R)-6-isopropenyl-3-methylcyclohex-2-en-1-yl]-5-pentylbenzene-l,3-diol” (ENANTIA, S.L., priority 2017, dated 2021).

Columns and labels:
[1] = in humans; cited from earlier work
[2] = open vial, 40° C. and 75±5% relative humidity
Protocol: The aim of the study is to evaluate the stability of cocrystal Form I of the present invention.
Cocrystal Form I of the present invention obtained by the process disclosed in section 1.1.B.1.
Cocrystal Form I (55 mg) is stored in an open vial and exposed to accelerated stability conditions (40° C. and 75±5% relative humidity) according to ICH guidelines (Guidance for Industry Q1A(R2) Stability Testing of New Drug Substances and Products—available on the website http://www.ich.org/products/guidelines/quality/quality-single/article/stability-testing-of-new-drug-substances-and-products.html on Aug. 4, 2017).

| Structure (SMILES) | oral bioavailability [1] | stability (solid form) [2] |
| --- | --- | --- |
| C=C(C)[C@@H]1CCC(C)=C[C@H]1c1c(O)cc(CCCCC)cc1O [CBD, 2-[(1R,6R)-6-isopropenyl-3-methylcyclohex-2-en-1-yl]-5-pentylbenzene-1,3-diol] | 6-33% |  |
| C=C(C)[C@@H]1CCC(C)=C[C@H]1c1c(O)cc(CCCCC)cc1O.O=C(O)[C@@H]1CCCN1 [cocrystal Form I, cocrystal of 2-[(1R,6R)-6-isopropenyl-3-methylcyclohex-2-en-1-yl]-5-pentylbenzene-1,3-diol with L-proline] |  | remained stable for at least three weeks |
